# Counter-ions that a name gives are not always drawn.
# Tests used:
# [1] = test system: human melanoma cells (MeWo, MeWo-LM2, HT-144, SK-Mel-2, SK-Mel-334.2); test: trans-well matrigel cell invasion assay, melanoma cells; format: cell-based; details: for ability of melanoma cells to invade through matrigel: MeWo, HT-144, SK-Mel-2, SK-Mel-334.2, 1 μM for 72 hours
# Protocol: Cancer cells were serum-starved in 0.2% FBS DMEM-based media for 12 hours. Trans-well invasion chambers (354480, BD Biosciences, Bedford, Mass.) were pre-equilibrated prior to beginning the assay by adding 0.5 mL of starvation media to the top and bottom chambers. After 30 minutes, the media in the top chamber was removed, and 0.5 mL of media containing 1×10^5 cancer cells was added into each matrigel-coated trans-well insert and incubated at 37° C. for 24 hours. For neutralization antibody and/or recombinant protein experiments, antibody/recombinant protein was added to each well at the start of the assay at the following concentrations as indicated in the figures: 5-40 μg/mL anti-ApoE 1D7 (Heart Institute, University of Ottawa), 5-40 μg/mL anti-IgG (AB-108-C, R&D Systems, Minneapolis, Minn.), 100 μM recombinant human ApoE3 (4696, BioVision, Mountain View, Calif.), and 100 μM BSA (A2153, Sigma-Aldrich). Upon completion of the assay, matrigel-coated inserts were washed with PBS, the cells at the top side of each insert were scraped off, and the inserts were fixed in 4% paraformaldehyde for 15 minutes. The inserts were then cut out and mounted onto slides using VectaShield mounting medium containing DAPI (H-1000, Vector Laboratories, Burlingame, Calif.). The basal side of each insert was imaged using an inverted fluorescence microscope (Zeiss Axiovert 40 CFL) at 5× magnification, taking three representative images for each insert. The number of invaded cells was quantified using ImageJ (NIH).
# The cell invasion assay was performed as previously described in detail (Pencheva et al., 2012) using a trans-well matrigel invasion chamber system (354480, BD Biosciences). In brief, various melanoma cells were cultured in the presence of DMSO, GW3965, T0901317, or Bexarotene at 1 μM for 56 hours, after which melanoma cells were switched to starvation media (0.2% FBS) for 16 hours in the presence of each drug. Following starvation, cells were seeded into matrigel-coated trans-well inserts, and the invasion assay was allowed to proceed for 24 hours at 37° C. For ApoE antibody neutralization experiments, 40 μg/mL 1D7 anti-ApoE blocking antibody (Heart Institute, University of Ottawa, Ottawa, Canada) or 40 μg/mL anti-IgG control antibody (AB-108-C, R&D Systems, Minneapolis, Minn.) was added to each trans-well insert at the start of the assay.
# The cells were then serum starved for 16 hours in 0.2% FBS media in the presence of each corresponding drug or DMSO. Following serum starvation, the cells were subjected to the trans-well invasion assay using a matrigel invasion chamber system (354480, BD Biosciences). Invasion chambers were pre-equilibrated prior to the assay by adding 0.5 mL of starvation media to the top and bottom wells. Meanwhile, cancer cells were trypsinized and viable cells were counted using trypan blue. Cancer cells were then resuspended at a concentration of 2×10^5 cells/1 mL starvation media, and 0.5 mL of cell suspension, containing 1×10^5 cells, was seeded into each trans-well. The invasion assay was allowed to proceed for 24 hours at 37° C. […] Following fixation, the inserts were washed in PBS, cut out, and mounted onto slides using VectaShield mounting medium containing DAPI nuclear stain (H-1000, Vector Laboratories). The basal side of each insert was imaged using an inverted fluorescence microscope (Zeiss Axiovert 40 CFL) at 5× magnification, and the number of DAPI-positive cells was quantified using ImageJ.
# [2] = test system: human melanoma cells (MeWo, MeWo-LM2, A375-LM3, HT-144, SK-Mel-334.2); test: tail-vein lung metastatic colonization assay; format: in vivo, mouse; details: for reduction in lung metastatic colonization by MeWo cells: orally administered, immunocompromised mice
# Protocol: After 8 hours, the transfection media was replaced with fresh media. After 48 hours, 1×10^5 cells were injected intravenously into NOD-SCID mice to assess lung metastatic colonization or through intracardiac injection into athymic nude mice to assess systemic metastasis. For cell invasion and endothelial recruitment in vitro assays, the cells were used 96 hours post-transfection.
# Melanoma cells used for in vivo metastasis assays were transduced with a stably expressed retroviral construct encoding a luciferase reporter gene (Ponomarev et al., 2004), allowing us to monitor the in vivo progression of melanoma cells by bioluminescence imaging. The following numbers of melanoma cells, resuspended in 100 μL of PBS, were injected intravenously via the tail-vein: 4×10^4 MeWo cells, 2.5×10^5 HT-144 cells, 2×10^5 SK-Mel-334.2 cells, 5×10^4B 16F10 cells, and 1×10^5YUMM cells. The MeWo, HT-144, and SK-Mel-334.2 cells were injected into 6-8 week-old sex-matched NOD scid mice, while the B16F10 and YUMM cells were injected into 6-8 week-old sex-matched C57BL/6 mice. In all experiments assessing at the effects of GW3965 on metastasis formation, mice were pre-treated on a control diet or a GW3965-supplemented diet (20 mg/kg) for 10 days. To assess the effect of GW3965 treatment on brain metastasis, 1×10^5 MeWo brain-metastatic derivatives were injected intracardially into athymic nude mice. Immediately following injection, mice were randomly assigned to a control diet or GW3965-supplemented diet (100 mg/kg). To determine whether oral delivery of GW3965 can inhibit the progression of incipient metastasis, NOD Scid mice were intravenously injected with 4×10^4MeWo cells and the cells were allowed to colonize the lungs for 42 days, after which mice were blindedly assigned to a control diet or a GW3965-supplemented diet (100 mg/kg) treatment.
compound,measurement,setting,value
O=S(=O)(c1ccccc1)N(CC(F)(F)F)c1ccc(C(O)(C(F)(F)F)C(F)(F)F)cc1 [T0901317 1],ability of melanoma cells to invade through matrigel,[1],consistently suppressed
same,reduction in lung metastatic colonization by MeWo cells,[2]; chow 20 mg/kg,23 fold
"recombinant ApoE3: recombinant human ApoE3 (4696, BioVision)",invasion by metastatic LM2 cells,[1]; 100 μM added to cell media,significantly suppressed
same,suppression of metastatic colonization,[2]; MeWo-LM2 cells pre-incubated for 24 hours at 100 μg/mL before injection,over 300 fold
"O=C(O)Cc1cccc(OCCCN(Cc2cccc(C(F)(F)F)c2Cl)CC(c2ccccc2)c2ccccc2)c1 [GW3965 2, 3-[3-[N-(2-Chloro-3-trifluoromethylbenzyl)-(2,2-diphenylethyl)amino]propyloxy] phenylacetic acid hydrochloride]",ability of melanoma cells to invade through matrigel,[1],consistently suppressed
same,tumor cell invasion,[1]; parental MeWo cells pre-treated for 48 hours,decreased
same,reduction in metastatic colonization capacity of pre-treated cells,[2]; MeWo cells pre-treated 1 μM for 48 hours,more than 50 fold
same,survival times following metastatic colonization,[2]; chow 20 mg/kg,significantly prolonged
same,"in vivo melanoma metastasis (lung, bioluminescence)","[2]; chow diet 20 mg/kg, tail-vein injection of parental MeWo cells",significant reduction
same,metastatic colonization by HT-144 and SK-Mel-334.2 lines,[2]; diet 20 mg/kg,suppressed
same,suppression of colonization by incipient lung metastases,[2]; diet 100 mg/kg from d42,28 fold
same,number of macroscopic metastatic nodules formed,"[2]; diet 100 mg/kg, d77",decreased
same,reduction in lung metastatic colonization by MeWo cells,[2]; chow 20 mg/kg,31 fold
